Measurements published in patent US8673815B2, “Herbicidal composition” (Ishihara Sangyo Kaisha, Ltd., priority 2010, dated 2014).

Key:
[1] = system: bermuda grass (Cynodon dactylon (L.) Pers.); assay: Foliar treatment pot test on bermuda grass, visual growth inhibition rate (Test Example 2); type: in vivo; settings: in Cynodon dactylon, foliar treatment at 5.0 to 7.0-leaf stage, 21st day after treatment, read-out: Growth inhibition rate (%) of bermuda grass, Measured value
Text: When the herbicidal activity in a case where two active ingredients are combined, is larger than the simple sum of the respective herbicidal activities of the two active ingredients (the expected activity), it is called a synergistic effect. The activity expected by the combination of two active ingredients can be calculated as follows (Colby S. R., “Weed”, vol. 15, p. 20-22, 1967). E=α+β-(α×β÷100) where α: growth inhibition rate when treated with x (g/ha) of herbicide X, β: growth inhibition rate when treated with y (g/ha) of herbicide Y, E: growth inhibition rate expected when treated with x (g/ha) of herbicide X and y (g/ha) of herbicide Y. Growth inhibition rate (%)=0 (equivalent to the non-treated area) to 100 (complete kill) Upland field soil was put into a 1/1,000,000 ha pot, and seeds of bermuda grass (Cynodon dactylon (L.) Pers.) were sown. When the bermuda grass reached 5.0 to 7.0-leaf stage, predetermined amounts of water dispersible granules comprising flazasulfuron as an active ingredient (trade name: […]) were diluted with water (corresponding to 1,000 L/ha) containing 0.05 vol % of an agricultural adjuvant (trade name: […]) and applied for foliar treatment by a small sprayer. On the 21st day after treatment, the state of growth of the bermuda grass was visually observed to determine the growth inhibition rate. The growth inhibition rate (%) (measured value) and the growth inhibition rate (%) calculated in the same manner as in Test Example 1 are shown in Table 2.

[2] = system: crabgrass (Digitaria sanguinalis.); assay: Foliar treatment pot test on crabgrass, visual growth inhibition rate (Test Example 1); type: in vivo; settings: foliar treatment at 3.8 to 4.0-leaf stage, 28th day after treatment, read-out: Growth inhibition rate (%) of crabgrass, Measured value
Text: When the herbicidal activity in a case where two active ingredients are combined, is larger than the simple sum of the respective herbicidal activities of the two active ingredients (the expected activity), it is called a synergistic effect. The activity expected by the combination of two active ingredients can be calculated as follows (Colby S. […] E=α+β-(α×β÷100) where α: growth inhibition rate when treated with x (g/ha) of herbicide X, β: growth inhibition rate when treated with y (g/ha) of herbicide Y, E: growth inhibition rate expected when treated with x (g/ha) of herbicide X and y (g/ha) of herbicide Y. Upland field soil was put into a 1/1,000,000 ha pot, and seeds of crabgrass (Digitaria sanguinalis.) were sown. When the crabgrass reached 3.8 to 4.0-leaf stage, predetermined amounts of water dispersible granules comprising flazasulfuron as an active ingredient (trade name: […] manufactured by Ishihara Sangyo Kaisha, Ltd.) were diluted with water (corresponding to 300 L/ha) containing 0.1 vol % of an agricultural adjuvant (trade name: […] manufactured by NIHON NOHYAKU CO., LTD.) and applied for foliar treatment by a small sprayer. On the 28th day after treatment, the state of growth of the crabgrass was visually observed to determine the growth inhibition rate in accordance with the following evaluation standard. The growth inhibition rate (%) (measured value) and the growth inhibition rate (%) (calculated value) calculated by the Colby's formula are shown in Table 1. Growth inhibition rate (%)=0 (equivalent to the non-treated area) to 100 (complete kill)

SMILES: COc1cc(OC)nc(NC(=O)NS(=O)(=O)c2ncccc2C(F)(F)F)n1 [Flazasulfuron, 1-(4,6-dimethoxypyrimidin-2-yl)-3-(3-trifluoromethyl-2-pyridylsulfonyl)urea]
- inhibition at 10 g/ha [1]: 0%
- inhibition at 200 g/ha ([1]; dose 200 g/ha): 45%
- inhibition at 12.5 g/ha ([2]; dose 12.5 g/ha): 87%

SMILES: COc1cc(OC)nc(NC(=O)NS(=O)(=O)c2ncccc2C(=O)N(C)C)n1 [Nicosulfuron, 2-(4,6-dimethoxypyrimidin-2-ylcarbamoylsulfamoyl)-N,N-dimethylnicotinamide]
- inhibition at 10 g/ha [1]: 8%
- inhibition at 150 g/ha ([1]; dose 150 g/ha): 90%
- inhibition at 15 g/ha ([2]; dose 15 g/ha): 7%
- inhibition at 40 g/ha ([2]; dose 40 g/ha): 22%
